According to patent US20130310374A1, “Substituted Imidazoquinoline Derivatives” (PIRAMAL ENTERPRISES LIMITED`, priority 2010, published 2013):
Where two headings read alike, the source gives them in different places.

Assays:
A2780 = test: Cytotoxicity propidium iodide assay, A2780; type: cell-based; settings: Homo sapiens; for IC50: A2780 (ovarian), 48 hours treatment, read-out: IC50 Values in μM, C1a
Protocol: (§1) The assay was designed as in the reference, Anticancer Drugs, 2002, 13, 1-8, the disclosure of which is incorporated herein by reference for the teaching of the assay.
(§2) Cells from cell lines (ATCC) as mentioned in the table given below were seeded at a density of 3000 cells/well in a white opaque 96-well plate. Following incubation at 37° C./5% CO2 for a period of 18-24 hours, the cells were treated with various concentrations (stock solution was prepared in DMSO and subsequent dilutions were made in media as per ATCC guidelines) of the compounds of the present invention for a period of 48 hours. At the end of treatment, the culture medium was discarded, the cells were washed with 1×PBS and 200 μL of […] propidium iodide was added to each well. The plates were frozen at 70° C. overnight. For analysis, the plates were warmed to RT, allowed to thaw and were read in PoleStar fluorimeter with the fluorescence setting. The percentage of viable cells in the non-treated set of wells was considered to be 100 and the percentage viability following treatment was calculated accordingly. IC50 values were calculated from graphs plotted using these percentages. IC50 values for certain compounds of present invention are depicted in Table 1 and % Inhibition of certain compounds of present invention are depicted in Table 2.

PC3 = test: Cytotoxicity propidium iodide assay, PC3; type: cell-based, human; settings: Homo sapiens, PC-3; for IC50: PC3 (prostate), 48 hours treatment, read-out: IC50 Values in μM, C2a
Protocol: as §1, §2

BT 549 = test: Cytotoxicity propidium iodide assay, BT 549; type: cell-based; settings: Homo sapiens; BT 549 (breast), 48 hours treatment; read-out: IC50 Values in μM, C3c
Protocol: as §1, §2

MCF7 = test: Cytotoxicity propidium iodide assay, MCF7; type: cell-based; settings: Homo sapiens; MCF7 (breast), 48 hours treatment; read-out: IC50 Values in μM, C3d
Protocol: as §1, §2

K562 = test: Cytotoxicity propidium iodide assay, K562; type: cell-based; settings: K562 (CML), 48 hours treatment, read-out: IC50 Values in μM, C6a
Protocol: as §1, §2

MDA MB 231 = test: Cytotoxicity propidium iodide assay, MDA MB 231; type: cell-based; settings: Homo sapiens; MDA MB 231 (breast), 48 hours treatment; read-out: IC50 Values in μM, C3a
Protocol: as §1
as §2, with “The plates were frozen at 70° C. overnight.” left out

MDA MB 468 = test: Cytotoxicity propidium iodide assay, MDA MB 468; type: cell-based; settings: Homo sapiens; MDA MB 468 (breast), 48 hours treatment; read-out: IC50 Values in μM, C3b
Protocol: as §1, §2

PANC 1 = test: Cytotoxicity propidium iodide assay, PANC 1; type: cell-based; settings: Homo sapiens; PANC 1 (pancreatic), 48 hours treatment; read-out: IC50 Values in μM, C4a
Protocol: as §1, §2

AsPC 1 = test: Cytotoxicity propidium iodide assay, AsPC 1; type: cell-based; settings: Homo sapiens, ASPC1; AsPC 1 (pancreatic), 48 hours treatment; read-out: IC50 Values in μM, C4b
Protocol: as §1
as §2, with “The plates were frozen at 70° C. overnight.” left out

BxPC3 = test: Cytotoxicity propidium iodide assay, BxPC3; type: cell-based; settings: Homo sapiens, BXPC-3; BxPC3 (pancreatic), 48 hours treatment; read-out: IC50 Values in μM, C4c
Protocol: as §1, §2

PI3K/mTOR pathway = test: Western blot analysis in A2780 ovarian cancer cell line; type: cell-based; settings: A2780 cells treated for 1 hour; FIG. 1A-1E
Protocol: Protocol for Western Blot Analysis
A2780 ovarian cancer cell line (ATCC) were grown to approximately 70% confluence in 100-mm tissue culture dishes and then treated for 1 hour with […] compounds of Example 2, 3, 5, 16, 19, 55 and 59. Total protein was extracted using cell lysis buffer (NaCl […], NP40 0.67%, Tris-Cl, pH 7.5, 67 mM) containing protease inhibitors and phosphatase inhibitors (Beta-glycerol phosphate 40 mM, DTT 1 mM, NaF 0.4 mM, Sodium-Orthovanadate 0.4 mM) at 4° C. for 1 hour. Cell lysates were then centrifuged at 2×10^4 g for 10 minutes at 4° C., and the protein concentration of the supernatant was quantified using the Bradford's method (BioRad, USA). For SDS-PAGE, 50 μg protein was loaded in SDS-PAGE, transferred to a polyvinylidene difluoride membrane (Bio-Rad, USA) and blocked with 5 mL buffer [5% skim milk and 0.1% Tween] for 1 hour 30 minutes. Membrane were probed with primary antibody (all primary antibodies were from cell signaling with 1:1000 in TBST solution) of respective protein at 4° C. overnight. Peroxidase-labeled anti-rabbit or anti-mouse antibodies (Santacruze, USA) were used as the secondary antibody. Actin and respective whole protein levels were used as the control for protein loading. Protein antigens were detected using Chemiluminescent Substrate (Thermo scientific, USA) and exposed on Kodak station.

LN229 = test: Cytotoxicity propidium iodide assay, LN229; type: cell-based; settings: LN229 (glioblastoma), 48 hours treatment; read-out: IC50 Values in μM, C5a
Protocol: as §1, §2

LN18 = test: Cytotoxicity propidium iodide assay, LN18; type: cell-based; settings: LN18 (glioblastoma), 48 hours treatment; read-out: IC50 Values in μM, C5b
Protocol: as §1, §2

KU812/SR = test: Cytotoxicity propidium iodide assay, KU812/SR; type: cell-based; settings: KU812/SR (CML), 48 hours treatment; read-out: IC50 Values in μM, C6c
Protocol: as §1, §2

KCL22/SR = test: Cytotoxicity propidium iodide assay, KCL22/SR; type: cell-based; settings: KCL22/SR (CML), 48 hours treatment; read-out: IC50 Values in μM, C6e
Protocol: as §1, §2

Q: For `Cn1c(=O)n(-c2ccc(Cl)nc2C(F)(F)F)c2c3cc(-c4cccnc4)ccc3ncc21` [Example 63, 1-(6-Chloro-2-(trifluoromethyl)pyridin-3-yl)-3-methyl-8-(pyridin-3-yl)-1H-imidazo[4,5-c]quinolin-2 (3H)-one], which inhibition at 1 µM (A2780; A2780, 1 μM, 48 hours, read-out: % Inhibition at 1 μM, C1a) is on record?
A: 88%

Q: And the inhibition at 1 µM (PC3; PC3, 1 μM, 48 hours, read-out: % Inhibition at 1 μM, C2a)?
A: 53%

Q: What about the IC50 (BT 549) of the same compound?
A: 5.6 µM

Q: What about the IC50 (MCF7) of the same compound?
A: 4 µM

Q: What about the IC50 (K562; Homo sapiens) of the same compound?
A: 0.224 µM

Q: `Cn1c(=O)n(-c2ccc(C(F)(F)F)nc2)c2c3cc(-c4cnc5ccccc5c4)ccc3ncc21` [Example 54, 3-Methyl-8-(quinolin-3-yl)-1-(6-(trifluoromethyl)pyridin-3-yl)-1H-imidazo[4,5-c]quinolin-2(3H)-one] was tested. Which IC50 (A2780) did it give?
A: 0.16 µM

Q: And the IC50 (PC3)?
A: 0.55 µM

Q: And the IC50 (MDA MB 231)?
A: 0.55 µM

Q: And the IC50 (MDA MB 468)?
A: 1.2 µM

Q: What about the IC50 (BT 549) of the same compound?
A: 1 µM

Q: And the IC50 (MCF7)?
A: 0.8 µM

Q: What about the IC50 (PANC 1) of the same compound?
A: 0.95 µM

Q: And the IC50 (AsPC 1)?
A: 0.55 µM

Q: What about the IC50 (BxPC3) of the same compound?
A: 0.78 µM

Q: For `Cn1c(=O)n(-c2ccc3ncccc3c2)c2c3cc(-c4cnc(N)c(C(F)(F)F)c4)ccc3ncc21` [Example 67, 8-(6-Amino-5-(trifluoromethyl)pyridin-3-yl)-3-methyl-1-(quinolin-6-yl)-1H-imidazo[4,5-c]quinolin-2 (3H)-one], which IC50 (A2780) is on record?
A: 0.006 µM

Q: And the IC50 (PC3)?
A: 0.015 µM

Q: And the IC50 (MDA MB 231)?
A: 0.012 µM

Q: What about the IC50 (MDA MB 468) of the same compound?
A: 0.05 µM

Q: And the IC50 (BT 549)?
A: 0.011 µM

Q: And the IC50 (MCF7)?
A: 0.02 µM

Q: And the IC50 (PANC 1)?
A: 0.025 µM

Q: What about the IC50 (AsPC 1) of the same compound?
A: 0.035 µM

Q: What about the IC50 (BxPC3) of the same compound?
A: 0.0085 µM

Q: With `Cn1c(=O)n(-c2ccc(C(C)(C)C#N)nc2)c2c3cc(-c4ccc5ncccc5c4)ccc3ncc21` [Example 5, 2-Methyl-2-(5-(3-methyl-2-oxo-8-(quinolin-6-yl)-2,3-dihydro-1H-imidazo[4,5-c]quinolin-1-yl)pyridin-2-yl)propanenitrile] as the compound, how does the “Akt, S6 and 4EBP1 phosphorylation (Western blot)” value (PI3K/mTOR pathway) read?
A: inhibit Akt, S6 and 4EBP1 phosphorylation

Q: What about the IC50 (A2780) of the same compound?
A: 0.08 µM

Q: What about the IC50 (PC3) of the same compound?
A: 0.38 µM

Q: `CC(C)(C#N)c1ccc(-n2c(=O)n(CC#N)c3cnc4ccc(-c5cnc6ccccc6c5)cc4c32)cn1` [Example 17, 2-(5-(3-(Cyanomethyl)-2-oxo-8-(quinolin-3-yl)-2,3-dihydro-1H-imidazo[4,5-c]quinolin-1-yl)pyridin-2-yl)-2-methylpropanenitrile] was tested. Which IC50 (A2780) did it give?
A: 0.065 µM

Q: What about the IC50 (PC3) of the same compound?
A: 0.17 µM

Q: And the IC50 (MDA MB 231)?
A: 0.17 µM

Q: What about the IC50 (MDA MB 468) of the same compound?
A: 0.45 µM

Q: What about the IC50 (BT 549) of the same compound?
A: 0.37 µM

Q: What about the IC50 (MCF7) of the same compound?
A: 0.25 µM

Q: What about the IC50 (PANC 1) of the same compound?
A: 0.23 µM

Q: What about the IC50 (AsPC 1) of the same compound?
A: 0.24 µM

Q: What about the IC50 (BxPC3) of the same compound?
A: 0.085 µM

Q: Which results are given for `Cn1c(=O)n(CCN2CCOCC2)c2c3cc(-c4cccnc4)ccc3ncc21` [Example 68, 3-Methyl-1-(2-morpholinoethyl)-8-(pyridin-3-yl)-1H-imidazo[4,5-c]quinolin-2(3H)-one]?
A: IC50 (A2780): 1.4 µM; IC50 (PC3): 2.4 µM; IC50 (MDA MB 231): 2.3 µM; IC50 (MDA MB 468): 7 µM; IC50 (BT 549): > 10 µM; IC50 (MCF7): 3 µM; IC50 (PANC 1): 4.6 µM; IC50 (AsPC 1): 4.6 µM; IC50 (BxPC3): 2.4 µM

Q: How did the IC50 (A2780) turn out when `Cn1c(=O)n(-c2ccc(C#N)nc2)c2c3cc(-c4cccnc4)ccc3ncc21` [Example 49, 5-(3-Methyl-2-oxo-8-(pyridin-3-yl)-2,3-dihydro-1H-imidazo[4,5-c]quinolin-1-yl)picolinonitrile] was run?
A: 0.009 µM

Q: And the IC50 (PC3)?
A: 0.017 µM

Q: What about the IC50 (MDA MB 231) of the same compound?
A: 0.016 µM

Q: What about the IC50 (MDA MB 468) of the same compound?
A: 0.065 µM

Q: What about the IC50 (BT 549) of the same compound?
A: 0.3 µM

Q: What about the IC50 (MCF7) of the same compound?
A: 0.03 µM

Q: And the IC50 (PANC 1)?
A: 0.035 µM

Q: What about the IC50 (AsPC 1) of the same compound?
A: 0.025 µM

Q: And the IC50 (BxPC3)?
A: 0.04 µM

Q: `Cn1c(=O)n(-c2ccc(C(F)(F)F)nc2Cl)c2c3cc(-c4cnc(N)c(C(F)(F)F)c4)ccc3ncc21` [Example 59, 8-(6-Amino-5-(trifluoromethyl)pyridin-3-yl)-1-(2-chloro-6-(trifluoromethyl)pyridin-3-yl)-3-methyl-1H-imidazo[4,5-c]quinolin-2(3H)-one] was tested. Which “Akt, S6 and 4EBP1 phosphorylation (Western blot)” value (PI3K/mTOR pathway) did it give?
A: inhibit Akt, S6 and 4EBP1 phosphorylation

Q: What about the IC50 (A2780) of the same compound?
A: < 0.01 µM

Q: And the IC50 (PC3)?
A: 0.018 µM

Q: And the IC50 (MDA MB 231)?
A: < 0.01 µM

Q: And the IC50 (MDA MB 468)?
A: 0.07 µM

Q: What about the IC50 (BT 549) of the same compound?
A: 0.04 µM

Q: What about the IC50 (MCF7) of the same compound?
A: 0.013 µM

Q: What about the IC50 (PANC 1) of the same compound?
A: 0.017 µM

Q: What about the IC50 (AsPC 1) of the same compound?
A: 0.042 µM

Q: And the IC50 (BxPC3)?
A: < 0.01 µM

Q: How did the IC50 (LN229) turn out when “1-(6-Chloro-2,4′-bipyridin-3-yl)-3-methyl-8-(pyridin-3-yl)-1H-imidazo[4,5-c]quinolin-2(3H)-one [Example 72]” was run?
A: 0.44 µM

Q: What about the IC50 (LN18) of the same compound?
A: 0.992 µM

Q: And the IC50 (K562)?
A: 0.0144 µM

Q: And the IC50 (KU812/SR)?
A: 1.14 µM

Q: And the IC50 (KCL22/SR)?
A: 0.23 µM
